According to the supplement of paper PMC10307832:

Assays:
Assay in all cases: relative viability (nuclei count vs DMSO), 5 days (fraction); higher = more cells survive
NCI-H2009 = tested on: NCI-H2009
How it was run: (§1)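 For relative viability, nuclei counts in treated wells were divided by those in vehicle wells. Lung cancer cell lines had been pin-tool dosed in 1536-well plates the day after seeding and cultured for 5 days, then fixed and stained in one step (final 0.05% Triton X-100, 1% formaldehyde, 1 ug/ml Hoechst) and imaged at 4×. Doses were one drug alone or a fixed anchor-drug dose plus five library-drug doses (not always all listed) in √10 steps, and values are duplicate-plate medians.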

NCI-H2085 = tested on: NCI-H2085
How it was run: as §1

NCI-H2228 = tested on: NCI-H2228
How it was run: as §1

NCI-H2347 = tested on: NCI-H2347
How it was run: as §1

NCI-H2405 = tested on: NCI-H2405
How it was run: as §1

NCI-H3122 = tested on: NCI-H3122
How it was run: as §1

NCI-H596 = tested on: NCI-H596
How it was run: as §1

NCI-H838 = tested on: NCI-H838
How it was run: as §1

PC-14 = tested on: PC-14
How it was run: as §1

RERF-LC-KJ = tested on: RERF-LC-KJ
How it was run: as §1

SK-MES-1 = tested on: SK-MES-1
How it was run: as §1

SW 1573 = tested on: SW 1573
How it was run: as §1

For `O=c1[nH]c2ccccc2n1C1CCN(CCCC(c2ccc(F)cc2)c2ccc(F)cc2)CC1` [Pimozide] + N=C(N)NC(=N)NCCc1ccccc1 [Phenformin] (partner 250 µM), the relative viability (NCI-H2009; first compound 2.53 µM) was 0.46, the relative viability (NCI-H2009; first compound 8 µM) was 0.391 and the relative viability (NCI-H2085; first compound 0.08 µM) was 0.681. It also gave a relative viability (NCI-H2085; first compound 0.253 µM) of 0.732, a relative viability (NCI-H2085; first compound 0.8 µM) of 0.58 and a relative viability (NCI-H2085; first compound 2.53 µM) of 0.705. The relative viability (NCI-H2085; first compound 8 µM) was 0.637, the relative viability (NCI-H2228; first compound 0.08 µM) was 0.371 and the relative viability (NCI-H2228; first compound 0.253 µM) was 0.293. For the same compound, the relative viability (NCI-H2228; first compound 0.8 µM) was 0.338, the relative viability (NCI-H2228; first compound 2.53 µM) was 0.225 and the relative viability (NCI-H2228; first compound 8 µM) was 0.192. The relative viability (NCI-H2347; first compound 0.253 µM) was 0.474, the relative viability (NCI-H2347; first compound 0.8 µM) was 0.374 and the relative viability (NCI-H2347; first compound 2.53 µM) was 0.451. For the same compound, the relative viability (NCI-H2347; first compound 8 µM) was 0.269, the relative viability (NCI-H2405; first compound 0.08 µM) was 0.412 and the relative viability (NCI-H2405; first compound 0.253 µM) was 0.389. The relative viability (NCI-H2405; first compound 0.8 µM) was 0.478, the relative viability (NCI-H2405; first compound 2.53 µM) was 0.381 and the relative viability (NCI-H2405; first compound 8 µM) was 0.418. For the same compound, the relative viability (NCI-H3122; first compound 0.08 µM) was 0.372, the relative viability (NCI-H3122; first compound 0.253 µM) was 0.362 and the relative viability (NCI-H3122; first compound 0.8 µM) was 0.393. For the same compound, the relative viability (NCI-H3122; first compound 2.53 µM) was 0.343, the relative viability (NCI-H3122; first compound 8 µM) was 0.312 and the relative viability (NCI-H596; first compound 0.08 µM) was 0.751. For the same compound, the relative viability (NCI-H596; first compound 0.253 µM) was 0.774, the relative viability (NCI-H596; first compound 0.8 µM) was 0.588 and the relative viability (NCI-H596; first compound 2.53 µM) was 0.637. For the same compound, the relative viability (NCI-H596; first compound 8 µM) was 0.897, the relative viability (NCI-H838; first compound 0.08 µM) was 0.609 and the relative viability (NCI-H838; first compound 0.253 µM) was 0.636. The relative viability (NCI-H838; first compound 0.8 µM) was 0.636, the relative viability (NCI-H838; first compound 2.53 µM) was 0.519 and the relative viability (NCI-H838; first compound 8 µM) was 0.562. The relative viability (PC-14; first compound 0.253 µM) was 0.451, the relative viability (PC-14; first compound 2.53 µM) was 0.4 and the relative viability (PC-14; first compound 8 µM) was 0.517. For the same compound, the relative viability (RERF-LC-KJ; first compound 0.08 µM) was 0.416, the relative viability (RERF-LC-KJ; first compound 0.253 µM) was 0.467 and the relative viability (RERF-LC-KJ; first compound 0.8 µM) was 0.409. For the same compound, the relative viability (RERF-LC-KJ; first compound 2.53 µM) was 0.264, the relative viability (RERF-LC-KJ; first compound 8 µM) was 0.401 and the relative viability (SK-MES-1; first compound 0.08 µM) was 0.628. It also gave a relative viability (SK-MES-1; first compound 0.253 µM) of 0.619, a relative viability (SK-MES-1; first compound 0.8 µM) of 0.664 and a relative viability (SK-MES-1; first compound 2.53 µM) of 0.587. The relative viability (SK-MES-1; first compound 8 µM) was 0.603, the relative viability (SW 1573; first compound 0.08 µM) was 0.348 and the relative viability (SW 1573; first compound 0.253 µM) was 0.309. The relative viability (SW 1573; first compound 0.8 µM) was 0.341, the relative viability (SW 1573; first compound 2.53 µM) was 0.377 and the relative viability (SW 1573; first compound 8 µM) was 0.388.
